Tests used:
rats = assay: Anhedonic or negative affective side effects
sigma receptor = details: cited from earlier work
[1] = system: phencyclidine site of the N-methyl-D-aspartate (NMDA) receptor; details: compared with racemic ketamine or S(+)-ketamine; cited from earlier work

## CN[C@@]1(c2ccccc2Cl)CCCCC1=O.Cl [R(−)-ketamine, (2R)-2-(2-chlorophenyl)-2-(methylamino)cyclohexan-1-one]
rats
  Anhedonic or negative affective side effects: no anhedonic or negative affective side effects
Sigma receptor
  Higher affinity to the sigma receptor compared with S(+)-ketamine: 15 fold
[1]
  Lower affinity to the NMDA receptor: 4 fold
